Test results reported in publication PMC11784013, “Potassium molybdate blocks APN-dependent coronavirus entry by degrading receptor via PIK3C3-mediated autophagy” (Journal of Virology, 2024).

Key:
[1] = tested on: autophagy markers P62 and LC3; assay: Autophagy markers P62 and LC3 in ST cells (western blot); format: cell-based, swine; conditions: PM 10 mM; for LC3 (LC3-Ⅱ) level, western blot, relative to WT without PM (=1) / P62 level, western blot, relative to WT without PM (=1): PRCV 0.1 MOI, 16 h
Procedure: Fig 6 PM degrades APN by autophagy-lysosome pathway. (A) ST cells were treated with PM (10 mM) and infected with TGEV (0.1 MOI) in the presence and absence of MG132 (20 µM), 3-MA (20 mM), and Z-VAD-FMK (20 µM) for 16 h. The APN expression and TGEV N were detected by western blot. (B) ST cells were treated with PM (10 mM) at 2, 4, 8, and 16 h, autophagy markers P62 and LC3, and APN were measured by western blot. (C) ST cells were transfected with RFP-EGFP-LC3B for 12 h and then treated with PM (10 mM) or H2O for 36 h. The fluorescence of GFP and RFP was detected by confocal microscopy, scale bar: 5 µm. (D) Quantification of autophagosomes (Merge) and autolysosomes (RFP) from C using Image J software. (E) ST cells were treated with PM or H2O for 24 h. The autophagosomes (yellow arrow) and autolysosomes (asterisk) were detected by transmission electron microscope, scale bar: 2 µm. (F) The number of autophagosomes (yellow arrow) and autolysosomes (asterisk) was quantified. All western blot results were calculated by Image J. Results are presented as mean ± SD of data from three independent experiments. ***, P ≤ 0.001.
Cotransfected cells were washed with cold PBS twice and lysed with NP40 lysis buffer (Beyotime, China, P0013F) supplemented with 1 mM PMSF (Beyotime, China, ST506) and phosphatase inhibitors (Beyotime, China, P1096). Lysis buffer containing cells was added to 20 µL of protein A+G agarose beads (Beyotime, China, P2055) and IgG (Santa Cruz, USA, 2025) on a rotating device for 4 h at 4°C to remove nonspecific proteins, after which the mixture was centrifuged at 2,500 rpm for 5 min. The supernatant was harvested, and anti-Flag/Myc/His/IgG antibodies were added to the samples on a rocking platform overnight at 4°C. Subsequently, 40 µL of protein A+G agarose beads were added to the supernatant containing the antibody, which was incubated for 4 h at 4°C on a rotating device. After washing with lysis buffer three times, the immunoprecipitates were collected by centrifugation, and the supernatant was discarded. Immunoprecipitated proteins were detected by western blotting. For the western blot, the proteins were separated by SDS‒PAGE and transferred onto a PVDF membrane (GE, USA, 10600023). The membranes were blocked in 5% nonfat milk at room temperature for 2 h and then incubated with specific primary antibodies overnight. Subsequently, the membrane was incubated with the secondary antibody for 1 h at room temperature. Finally, the proteins on the membranes were visualized with WesternBright ECL (Advansta, USA, K-12045-D50).
Fig. S8. PM inhibits PRCV infection by degrading APN via PIK3C3-mediated autophagy. (A-C) WT ST cells and PIK3C3 KO ST cells were treated with PM (10 mM) and infected with PRCV (0.1 MOI) for 16 h. Then the APN, PIK3C3, ATG14, BECN1, P62, PRCV N and LC3 were detected by western blot (A), and viral titers and PRCV N mRNA level were determined by TCID50 (B) and RT-qPCR (C) . (D-F) WT ST cells and PIK3C3 KO ST cells transfected with pCMV-Myc and pCMV-Myc-PIK3C3 respectively for 24 h were treated with PM (10 mM) and infected with PRCV (0.1 MOI) for 16 h. The APN, PIK3C3, P62, PRCV N and LC3 were determined by western blot (D). TCID50 (E) and RT-qPCR (F) were performed to detect viral titers and PRCV N m RNA level. All western blot results were calculated by Image J. Results are presented as mean ± SD of data from three independent experiments (also on this page, place not known: 6 8 10 12 Viral load(log copies/ul) *** 2 4 6 8 log10 TCID50/ml *** 6 8 10 12 + Viral load(log copies/ul) PIK3C3-Myc + - + + + *** *** 2 4 6 8 log10 TCID50/ml *** + + + + PIK3C3-Myc - - - + - + + + *** WT KO PM (C). WT KO PM PRCV PM - + + PRCV + + + WT PIK3C3 KO PIK3C3 PRCV PIK3C3-Myc - - - + PM - + + + PRCV + + + + WT PIK3C3 KO 0 0) […]

ST cells = assay: Cell Counting Kit 8 cytotoxicity assay in ST cells; format: cell-based, swine; conditions: PM at concentrations less than 30 mM, 24 h
Procedure: Fig 1 PM inhibits TGEV and PRCV infection in ST cells. (A) A cytotoxicity assay of PM in ST cells. ST cells cultured in a 96-well plate were incubated with different concentrations of PM for 24 h, which was tested by Cell Counting Kit 8. (B) Time course for PM inhibiting TGEV or PRCV or PEDV infection assay. (C–F) The ST cells, pretreated with PM at the indicated concentrations for 1 h were infected with TGEV Miller (0.1 MOI) or PRCV (0.1 MOI) for 1 h and were again treated with PM at 37°C for 17 h. The cell samples were collected and examined by real-time quantitative PCR (RT-qPCR), TCID50, western blot (C and D), and immunofluorescence assay (IFA) (E and F), scale bar: 50 µm. (G) Vero-E6 cells were treated with indicated PM and infected with PEDV LJX 01/2014 according to the time course of Fig. 1B, which was detected by TCID50 and western blot. Results are presented as mean ± SD of data from three independent experiments. ns, no significant; **, P ≤ 0.01; ***, P ≤ 0.001.
ST cells or intestinal organoids cultured in a 96-well plate were incubated with different concentrations of PM (0, 0.1, 0.25, 0.5, 1, 2.5, 5, 10, 20, and 30 mM) for 24 h. […] The absorbance of each well was then measured at 450 nm using a microplate reader to determine cell viability.

[2] = Fig. S8D, PIK3C3 KO ST cells with PIK3C3-Myc
[3] = Fig. S8D, PIK3C3 KO ST cells without PIK3C3-Myc
[4] = Fig. S8D, WT ST cells with pCMV-Myc

Structure (SMILES): [K+].[K+].[O]=[Mo](=[O])([O-])[O-] [PM, potassium molybdate]
- LC3 (LC3-Ⅱ) level, western blot, relative to WT without PM (=1) ([1]; Fig. S8A, PIK3C3 KO ST cells): 0.95
- P62 level, western blot, relative to WT without PM (=1) ([1]; Fig. S8A, PIK3C3 KO ST cells): 0.83
- LC3 (LC3-Ⅱ) level, western blot, relative to WT without PM (=1) ([1]; Fig. S8A, WT ST cells): 3.42
- P62 level, western blot, relative to WT without PM (=1) ([1]; Fig. S8A, WT ST cells): 0.16
- LC3 (LC3-Ⅱ) level, western blot, relative to WT without PM (=1) [1, 2]: 3.45
- P62 level, western blot, relative to WT without PM (=1) [1, 2]: 0.27
- LC3 (LC3-Ⅱ) level, western blot, relative to WT without PM (=1) [1, 3]: 1.12
- P62 level, western blot, relative to WT without PM (=1) [1, 3]: 0.91
- LC3 (LC3-Ⅱ) level, western blot, relative to WT without PM (=1) [1, 4]: 3.61
- P62 level, western blot, relative to WT without PM (=1) [1, 4]: 0.26
- LC3-II generation from LC3-I ([1]; ST cells, 2-16 h, western blot): more of the autophagosome protein LC3-II was generated
- p62 level ([1]; ST cells, 2-16 h, western blot): p62 was consumed
- cytotoxicity (Cell Counting Kit 8) (ST cells): did not exhibit significant cytotoxicity
